Data published in article PMC12155096 (International Journal of Molecular Sciences, 2025).
Where a name gives a salt, the structure may show the parent alone.

biological target: Photinus pyralis (firefly) luciferase (Photinus pyralis, UniProt P08659); experiment: biochemical; type: biochemical; conditions: not given
Sequence (P08659 whole entry): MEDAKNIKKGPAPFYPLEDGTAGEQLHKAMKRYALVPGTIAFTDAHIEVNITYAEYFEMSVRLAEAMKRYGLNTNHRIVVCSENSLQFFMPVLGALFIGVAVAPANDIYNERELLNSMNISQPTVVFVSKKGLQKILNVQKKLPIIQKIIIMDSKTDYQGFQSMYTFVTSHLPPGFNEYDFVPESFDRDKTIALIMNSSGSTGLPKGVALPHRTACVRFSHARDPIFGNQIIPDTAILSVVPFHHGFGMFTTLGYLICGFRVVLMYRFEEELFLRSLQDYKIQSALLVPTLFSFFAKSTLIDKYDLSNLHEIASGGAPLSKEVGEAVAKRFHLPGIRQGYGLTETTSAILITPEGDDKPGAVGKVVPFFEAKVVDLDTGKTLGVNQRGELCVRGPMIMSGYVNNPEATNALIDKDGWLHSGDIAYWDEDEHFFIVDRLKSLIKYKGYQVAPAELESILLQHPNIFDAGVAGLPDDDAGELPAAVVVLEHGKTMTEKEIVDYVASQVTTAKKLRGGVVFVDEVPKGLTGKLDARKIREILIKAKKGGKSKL

Row | Structure (SMILES) | Luciferase IC50 | IC50 [µM] | Luciferase IC50 (half-maximal inhibitory concentration)
1 | Cl.Cl.c1ccc(CNCCNCc2ccccc2)cc1 | Inactive |  | 
2 | CCCCCCCCCCCCCCCC[N+](C)(C)Cc1ccccc1.[Cl-] [Benzylhexadecyldimethylammonium chloride] | Inactive |  | 
3 | CN(C)CCN(Cc1ccc(Cl)cc1)c1ccccn1.Cl [Chloropyramine hydrochloride] | Inactive |  | 
4 | C[C@@H](NCCCc1cccc(C(F)(F)F)c1)c1cccc2ccccc12 [Cinacalcet hydrochloride] | Inactive |  | 
5 | C[C@@H](Cc1ccccc1)NCc1ccccc1Cl.Cl [Clobenzorex hydrochloride] | Inactive |  | 
6 | O=c1c(-c2ccc(O)cc2)coc2cc(O)ccc12 [Daidzein] |  | 19.6 | 
7 | CCOP(=S)(OCC)Oc1cc(C)nc(C(C)C)n1 [Diazinon] | Inactive |  | 
8 | CC#C[C@]1(O)CC[C@H]2[C@@H]3C[C@H](C)C4=CC(=O)CC[C@]4(C)[C@H]3CC[C@@]21C [Dimethisteron] | Inactive |  | 
9 | ClC1=C(Cl)C2(Cl)C3C4CC(C5OC45)C3C1(Cl)C2(Cl)Cl (stereo not shown) [Endrin] | Inactive |  | 
10 | CCN(CC)C(=O)/C(C#N)=C/c1cc(O)c(O)c([N+](=O)[O-])c1 [Entacapone] |  |  | Inactive
11 | CCC(CN)=C(c1ccccc1)c1ccccc1.Cl [Etifelmine hydrochloride] | Inactive |  | 
12 | C#Cc1ccc(-c2ccccc2F)cc1 [Fluretofene] |  | 25.8 | 
13 | CCCCCCCCCCCCCCCC[N+](C)(C)C.[Cl-] [Hexadecyl trimethyl ammonium chloride] | Inactive |  | 
14 | CCC(C)n1ncn(-c2ccc(N3CCN(c4ccc(OCC5COC(Cn6cncn6)(c6ccc(Cl)cc6Cl)O5)cc4)CC3)cc2)c1=O (stereo not shown) [Itraconazole] |  |  | Inactive
15 | COCCOC(=O)C1=C(C)NC(C)=C(C(=O)OC(C)C)C1c1cccc([N+](=O)[O-])c1 (stereo not shown) [Nimodipine] |  |  | Inactive

biological target: T1, human CYP2C19 (Homo sapiens, UniProt P33261); experiment: not given; conditions: not given
T1 sequence (P33261 whole entry): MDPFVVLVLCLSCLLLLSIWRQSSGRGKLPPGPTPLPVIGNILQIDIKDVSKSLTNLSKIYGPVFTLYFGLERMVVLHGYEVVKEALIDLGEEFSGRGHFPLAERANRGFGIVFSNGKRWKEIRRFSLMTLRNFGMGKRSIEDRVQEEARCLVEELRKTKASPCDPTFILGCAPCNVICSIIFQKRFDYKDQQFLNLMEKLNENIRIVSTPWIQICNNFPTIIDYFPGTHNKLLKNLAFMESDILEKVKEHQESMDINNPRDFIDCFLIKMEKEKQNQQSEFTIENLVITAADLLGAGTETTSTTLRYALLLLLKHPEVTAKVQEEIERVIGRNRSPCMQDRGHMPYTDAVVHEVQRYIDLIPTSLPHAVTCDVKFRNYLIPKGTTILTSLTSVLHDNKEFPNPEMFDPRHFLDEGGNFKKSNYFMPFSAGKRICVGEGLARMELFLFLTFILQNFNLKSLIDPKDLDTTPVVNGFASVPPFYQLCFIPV

Row | Structure (SMILES) | CYP2C19 Efficacy | CYP2C19 IC50 (half-maximal inhibitory concentration)
16 | Cl.Cl.c1ccc(CNCCNCc2ccccc2)cc1 | 8.08 ± 0.55 (-122 ± 16) % | 
17 | CCCCCCCCCCCCCCCC[N+](C)(C)Cc1ccccc1.[Cl-] [Benzylhexadecyldimethylammonium chloride] | 46.97 ± 13.09 (-144 ± 26) % | 
18 | CN(C)CCN(Cc1ccc(Cl)cc1)c1ccccn1.Cl [Chloropyramine hydrochloride] | 7.51 ± 1.03 (-122 ± 9) % | 
19 | C[C@@H](Cc1ccccc1)NCc1ccccc1Cl.Cl [Clobenzorex hydrochloride] | 1.49 ± 0.1 (-137 ± 12) % | 
20 | CCN(CC)C(=O)/C(C#N)=C/c1cc(O)c(O)c([N+](=O)[O-])c1 [Entacapone] |  | Inactive
21 | CCC(CN)=C(c1ccccc1)c1ccccc1.Cl [Etifelmine hydrochloride] | 5.99 ± 2.37 (-107 ± 10) % | 
22 | CCCCCCCCCCCCCCCC[N+](C)(C)C.[Cl-] [Hexadecyl trimethyl ammonium chloride] | 43.2 ± 0.0 (-68 ± 16) % | 

same assay, conditions: human

Row | Structure (SMILES) | CYP2C19 Efficacy (in parenthesis)
23 | CCC(C)n1ncn(-c2ccc(N3CCN(c4ccc(OCC5COC(Cn6cncn6)(c6ccc(Cl)cc6Cl)O5)cc4)CC3)cc2)c1=O (stereo not shown) [Itraconazole] | 8.3 ± 4.22 (-53 ± 15) %

biological target: T2, human CYP2C9 (Homo sapiens, UniProt P11712); experiment: not given; conditions: not given
T2 sequence (P11712 whole entry): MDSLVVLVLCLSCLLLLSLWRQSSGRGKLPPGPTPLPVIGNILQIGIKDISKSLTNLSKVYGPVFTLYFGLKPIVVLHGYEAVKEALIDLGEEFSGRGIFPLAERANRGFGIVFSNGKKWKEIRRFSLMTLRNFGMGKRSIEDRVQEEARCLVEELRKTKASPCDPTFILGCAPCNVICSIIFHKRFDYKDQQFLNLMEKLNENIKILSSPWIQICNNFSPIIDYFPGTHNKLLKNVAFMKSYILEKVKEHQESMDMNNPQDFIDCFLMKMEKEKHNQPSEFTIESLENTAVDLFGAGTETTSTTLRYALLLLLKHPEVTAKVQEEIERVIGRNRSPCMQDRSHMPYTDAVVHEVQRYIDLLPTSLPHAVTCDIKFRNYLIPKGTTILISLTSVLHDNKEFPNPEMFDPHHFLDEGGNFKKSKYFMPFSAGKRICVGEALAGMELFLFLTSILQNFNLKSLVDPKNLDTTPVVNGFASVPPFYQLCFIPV

Row | Structure (SMILES) | CYP2C9 IC50 | CYP2C9 Efficacy
24 | Cl.Cl.c1ccc(CNCCNCc2ccccc2)cc1 | Inactive | 
25 | CCCCCCCCCCCCCCCC[N+](C)(C)Cc1ccccc1.[Cl-] [Benzylhexadecyldimethylammonium chloride] |  | 46.2 ± 8.63 (-120 ± 17) %
26 | C[C@@H](Cc1ccccc1)NCc1ccccc1Cl.Cl [Clobenzorex hydrochloride] | Inactive | 
27 | CCC(CN)=C(c1ccccc1)c1ccccc1.Cl [Etifelmine hydrochloride] |  | 11.85 ± 3.88 (-96 ± 8) %
28 | CCCCCCCCCCCCCCCC[N+](C)(C)C.[Cl-] [Hexadecyl trimethyl ammonium chloride] | Inactive | 

same assay, conditions: human

Row | Structure (SMILES) | CYP2C9 Efficacy (in parenthesis)
29 | CCC(C)n1ncn(-c2ccc(N3CCN(c4ccc(OCC5COC(Cn6cncn6)(c6ccc(Cl)cc6Cl)O5)cc4)CC3)cc2)c1=O (stereo not shown) [Itraconazole] | 14.05 ± 3.21 (-81 ± 13) %

biological target: T2, human CYP2C9; experiment: biochemical; conditions: not given

Row | Structure (SMILES) | IC50 [µM]
30 | C[C@@H](NCCCc1cccc(C(F)(F)F)c1)c1cccc2ccccc12 [Cinacalcet hydrochloride] | 38.9
31 | C#Cc1ccc(-c2ccccc2F)cc1 [Fluretofene] | 16.1

same assay, conditions: CYP2C9 IC50

Row | Structure (SMILES) | IC50 [µM]
32 | CCOP(=S)(OCC)Oc1cc(C)nc(C(C)C)n1 [Diazinon] | 1.99
33 | CC#C[C@]1(O)CC[C@H]2[C@@H]3C[C@H](C)C4=CC(=O)CC[C@]4(C)[C@H]3CC[C@@]21C [Dimethisteron] | 24.1
34 | ClC1=C(Cl)C2(Cl)C3C4CC(C5OC45)C3C1(Cl)C2(Cl)Cl (stereo not shown) [Endrin] | 12.4

same assay, conditions: CYP2C9 IC50 (half-maximal inhibitory concentration)

Row | Structure (SMILES) | IC50 [µM]
35 | O=c1c(-c2ccc(O)cc2)coc2cc(O)ccc12 [Daidzein] | 0.36
36 | CCN(CC)C(=O)/C(C#N)=C/c1cc(O)c(O)c([N+](=O)[O-])c1 [Entacapone] | 0.2
37 | CCC(C)n1ncn(-c2ccc(N3CCN(c4ccc(OCC5COC(Cn6cncn6)(c6ccc(Cl)cc6Cl)O5)cc4)CC3)cc2)c1=O (stereo not shown) [Itraconazole] | 14

biological target: T3, human CYP1A2 (Homo sapiens, UniProt P05177); experiment: not given; conditions: not given
T3 sequence (P05177 1-516): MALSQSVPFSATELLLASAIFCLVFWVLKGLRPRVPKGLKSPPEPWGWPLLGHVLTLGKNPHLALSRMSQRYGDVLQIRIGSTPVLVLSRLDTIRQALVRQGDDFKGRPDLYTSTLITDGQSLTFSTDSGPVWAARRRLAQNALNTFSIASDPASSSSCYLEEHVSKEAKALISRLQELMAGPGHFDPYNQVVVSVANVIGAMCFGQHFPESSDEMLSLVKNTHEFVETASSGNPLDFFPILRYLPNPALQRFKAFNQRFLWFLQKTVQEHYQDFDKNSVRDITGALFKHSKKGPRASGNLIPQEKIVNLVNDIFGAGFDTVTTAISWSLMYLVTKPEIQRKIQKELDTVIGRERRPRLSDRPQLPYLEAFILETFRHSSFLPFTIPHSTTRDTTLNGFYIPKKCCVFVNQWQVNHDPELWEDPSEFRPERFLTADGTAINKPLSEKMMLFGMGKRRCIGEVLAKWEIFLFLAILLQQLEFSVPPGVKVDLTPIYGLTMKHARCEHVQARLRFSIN

Row | Structure (SMILES) | CYP1A2 Efficacy | CYP1A2 IC50 | CYP1A2 IC50 (half-maximal inhibitory concentration)
38 | Cl.Cl.c1ccc(CNCCNCc2ccccc2)cc1 | 20.22 ± 5.13 (-47 ± 10) % |  | 
39 | CCCCCCCCCCCCCCCC[N+](C)(C)Cc1ccccc1.[Cl-] [Benzylhexadecyldimethylammonium chloride] | 75.23 ± 5.09 (-82 ± 8) % |  | 
40 | CN(C)CCN(Cc1ccc(Cl)cc1)c1ccccn1.Cl [Chloropyramine hydrochloride] | 20.13 ± 6.48 (-40 ± 3) % |  | 
41 | C[C@@H](Cc1ccccc1)NCc1ccccc1Cl.Cl [Clobenzorex hydrochloride] | 15.49 ± 0 (-71 ± 4) % |  | 
42 | CC#C[C@]1(O)CC[C@H]2[C@@H]3C[C@H](C)C4=CC(=O)CC[C@]4(C)[C@H]3CC[C@@]21C [Dimethisteron] |  | Inactive | 
43 | CCN(CC)C(=O)/C(C#N)=C/c1cc(O)c(O)c([N+](=O)[O-])c1 [Entacapone] |  |  | Inactive
44 | CCC(CN)=C(c1ccccc1)c1ccccc1.Cl [Etifelmine hydrochloride] | 14.36 ± 3.71 (-50 ± 13) % |  | 
45 | CCCCCCCCCCCCCCCC[N+](C)(C)C.[Cl-] [Hexadecyl trimethyl ammonium chloride] |  | Inactive | 
46 | CCC(C)n1ncn(-c2ccc(N3CCN(c4ccc(OCC5COC(Cn6cncn6)(c6ccc(Cl)cc6Cl)O5)cc4)CC3)cc2)c1=O (stereo not shown) [Itraconazole] |  |  | Inactive

biological target: CYP3A4 (Homo sapiens, UniProt P08684); experiment: not given; conditions: not given
Sequence (P08684 whole entry): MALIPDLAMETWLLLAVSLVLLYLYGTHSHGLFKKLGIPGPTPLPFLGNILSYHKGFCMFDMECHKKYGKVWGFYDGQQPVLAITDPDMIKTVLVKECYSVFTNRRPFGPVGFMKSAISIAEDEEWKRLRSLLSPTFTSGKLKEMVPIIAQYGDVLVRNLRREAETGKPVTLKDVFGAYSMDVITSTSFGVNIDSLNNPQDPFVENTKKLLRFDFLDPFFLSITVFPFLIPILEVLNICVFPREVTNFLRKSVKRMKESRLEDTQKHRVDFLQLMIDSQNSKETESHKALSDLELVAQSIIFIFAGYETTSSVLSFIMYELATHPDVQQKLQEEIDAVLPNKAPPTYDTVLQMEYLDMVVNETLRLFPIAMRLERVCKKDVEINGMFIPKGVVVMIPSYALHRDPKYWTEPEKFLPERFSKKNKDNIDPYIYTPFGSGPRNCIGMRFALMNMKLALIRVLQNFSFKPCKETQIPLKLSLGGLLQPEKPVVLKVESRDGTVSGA

Row | Structure (SMILES) | CYP3A4 IC50 | CYP3A4 IC50 (half-maximal inhibitory concentration)
47 | CN(C)CCN(Cc1ccc(Cl)cc1)c1ccccn1.Cl [Chloropyramine hydrochloride] | Inactive | 
48 | CCN(CC)C(=O)/C(C#N)=C/c1cc(O)c(O)c([N+](=O)[O-])c1 [Entacapone] |  | Inactive

biological target: T1, human CYP2C19; experiment: biochemical; conditions: not given

Row | Structure (SMILES) | IC50 [µM]
49 | C[C@@H](NCCCc1cccc(C(F)(F)F)c1)c1cccc2ccccc12 [Cinacalcet hydrochloride] | 10.8 ± 2.69
50 | C#Cc1ccc(-c2ccccc2F)cc1 [Fluretofene] | 25.7

same assay, conditions: CYP2C19 IC50

Row | Structure (SMILES) | IC50 [µM]
51 | CCOP(=S)(OCC)Oc1cc(C)nc(C(C)C)n1 [Diazinon] | 0.44
52 | CC#C[C@]1(O)CC[C@H]2[C@@H]3C[C@H](C)C4=CC(=O)CC[C@]4(C)[C@H]3CC[C@@]21C [Dimethisteron] | 9.42
53 | ClC1=C(Cl)C2(Cl)C3C4CC(C5OC45)C3C1(Cl)C2(Cl)Cl (stereo not shown) [Endrin] | 26.6

same assay, conditions: CYP2C19 IC50 (half-maximal inhibitory concentration)

Row | Structure (SMILES) | IC50 [µM]
54 | O=c1c(-c2ccc(O)cc2)coc2cc(O)ccc12 [Daidzein] | 36.4
55 | CCC(C)n1ncn(-c2ccc(N3CCN(c4ccc(OCC5COC(Cn6cncn6)(c6ccc(Cl)cc6Cl)O5)cc4)CC3)cc2)c1=O (stereo not shown) [Itraconazole] | 8.3

biological target: T3, human CYP1A2; experiment: biochemical; conditions: not given

Row | Structure (SMILES) | IC50 [µM]
56 | C[C@@H](NCCCc1cccc(C(F)(F)F)c1)c1cccc2ccccc12 [Cinacalcet hydrochloride] | 26.9 ± 8.25
57 | C#Cc1ccc(-c2ccccc2F)cc1 [Fluretofene] | 0.88

same assay, conditions: CYP1A2 IC50

Row | Structure (SMILES) | IC50 [µM]
58 | CCOP(=S)(OCC)Oc1cc(C)nc(C(C)C)n1 [Diazinon] | 7.13
59 | ClC1=C(Cl)C2(Cl)C3C4CC(C5OC45)C3C1(Cl)C2(Cl)Cl (stereo not shown) [Endrin] | 54

same assay, conditions: CYP1A2 IC50 (half-maximal inhibitory concentration)

Row | Structure (SMILES) | IC50 [µM]
60 | O=c1c(-c2ccc(O)cc2)coc2cc(O)ccc12 [Daidzein] | 28.3

biological target: human CYP2D6 (Homo sapiens, UniProt P10635); experiment: not given; conditions: not given
Sequence (P10635 whole entry): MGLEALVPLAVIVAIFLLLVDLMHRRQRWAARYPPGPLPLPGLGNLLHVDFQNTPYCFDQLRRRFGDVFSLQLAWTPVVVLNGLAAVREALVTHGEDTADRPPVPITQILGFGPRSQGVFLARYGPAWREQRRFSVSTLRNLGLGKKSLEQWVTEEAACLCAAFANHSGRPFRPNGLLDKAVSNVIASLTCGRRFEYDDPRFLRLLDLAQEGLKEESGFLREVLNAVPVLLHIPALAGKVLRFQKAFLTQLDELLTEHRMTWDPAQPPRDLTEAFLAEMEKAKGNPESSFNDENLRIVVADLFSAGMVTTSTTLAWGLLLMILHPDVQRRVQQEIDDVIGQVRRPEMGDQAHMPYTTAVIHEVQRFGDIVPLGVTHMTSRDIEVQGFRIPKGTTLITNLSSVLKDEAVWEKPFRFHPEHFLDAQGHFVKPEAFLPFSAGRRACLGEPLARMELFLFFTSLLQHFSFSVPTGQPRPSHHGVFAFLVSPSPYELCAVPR

Row | Structure (SMILES) | CYP2D6 Efficacy | CYP2D6 IC50 (half-maximal inhibitory concentration) | CYP2D6 IC50
61 | Cl.Cl.c1ccc(CNCCNCc2ccccc2)cc1 | 0.79 ± 0.18 (-110 ± 5) % |  | 
62 | CCCCCCCCCCCCCCCC[N+](C)(C)Cc1ccccc1.[Cl-] [Benzylhexadecyldimethylammonium chloride] | 0.34 ± 0.06 (-98 ± 2) % |  | 
63 | CN(C)CCN(Cc1ccc(Cl)cc1)c1ccccn1.Cl [Chloropyramine hydrochloride] | 0.23 ± 0.05 (-101 ± 4) % |  | 
64 | C[C@@H](Cc1ccccc1)NCc1ccccc1Cl.Cl [Clobenzorex hydrochloride] | 0.15 ± 0.03 (-111 ± 2) % |  | 
65 | O=c1c(-c2ccc(O)cc2)coc2cc(O)ccc12 [Daidzein] |  | Inactive | 
66 | CCOP(=S)(OCC)Oc1cc(C)nc(C(C)C)n1 [Diazinon] |  |  | Inactive
67 | CC#C[C@]1(O)CC[C@H]2[C@@H]3C[C@H](C)C4=CC(=O)CC[C@]4(C)[C@H]3CC[C@@]21C [Dimethisteron] |  |  | Inactive
68 | ClC1=C(Cl)C2(Cl)C3C4CC(C5OC45)C3C1(Cl)C2(Cl)Cl (stereo not shown) [Endrin] |  |  | Inactive
69 | CCN(CC)C(=O)/C(C#N)=C/c1cc(O)c(O)c([N+](=O)[O-])c1 [Entacapone] |  | Inactive | 
70 | CCC(CN)=C(c1ccccc1)c1ccccc1.Cl [Etifelmine hydrochloride] | 4.07 ± 0.52 (-106 ± 3) % |  | 
71 | CCCCCCCCCCCCCCCC[N+](C)(C)C.[Cl-] [Hexadecyl trimethyl ammonium chloride] | 0.8 ± 0.05 (-93 ± 8) % |  | 
72 | CCC(C)n1ncn(-c2ccc(N3CCN(c4ccc(OCC5COC(Cn6cncn6)(c6ccc(Cl)cc6Cl)O5)cc4)CC3)cc2)c1=O (stereo not shown) [Itraconazole] |  | Inactive | 

same assay, conditions: human

Row | Structure (SMILES) | IC50 [nM]
73 | C[C@@H](NCCCc1cccc(C(F)(F)F)c1)c1cccc2ccccc12 [Cinacalcet hydrochloride] | 50
